Assay results: patent publication US8247170B2, “Detection of penicillin tolerance in Group B Streptococcus: single nucleotide polymorphisms in penicillin binding protein 4” (priority 2008, dated 2012)

Test system: GBS laboratory strains
Test: MBC90:MIC90 ratio method of determining antibiotic tolerance
Type: cell-based, Group B Streptococcus
Settings: for Phenotype: by MBC:MIC ratio; for MBC: 24 h, ≧90% non-viable cells, plate counts after 24 h antibiotic; for MIC: ≧90% growth-inhibited, OD600
Method: The inventors ascertained the incidence of antibiotic tolerance in GBS clinical isolates collected from cervicovaginal-rectal swabs, by investigating cell wall inhibitors used to eliminate GBS colonization in pregnant women before delivery as stated by the CDC guidelines. A ratio of the minimum bactericidal concentration (MBC) over minimum inhibitory concentration (MIC) after 24 h of antibiotic incubation or by determining quantitative kill curves has been used to define antibiotic tolerance previously.
The MBC:MIC ratio was calculated for laboratory strains using three β-lactam antibiotics (Penicillin G, Ampicillin, and Cefazolin) and a glycopeptide antibiotic (Vancomycin) (Table 1). Early-log phase cultures of GBS were treated with the individual antibiotics at a concentration of 0.25 to 512×MIC90. The optical density (OD600) of antibiotic treated cultures was used to determine the MIC90 after 24 h and a cell count was used to determine their MBC90. Susceptible, tolerant and intermediate strains were defined by their MBC:MIC ratio of ≦2:1, ≧32:1 and 4:1-16:1 respectively. […] The ratios characterized GBS strains A909 and 2603V/R as Susceptible, O90R as Tolerant, and NEM316 as Intermediate to Penicillin, Ampicillin, and Cefazolin. All four strains were susceptible to Vancomycin.
(I) Bacterial Strains and Culture Conditions. GBS strains A909 (serotype IA), 515 (serotype IA), NEM316 (serotype III), COHI (serotype III), 2603V/R (serotype V) and O90R (non-typable) were used in this study. E. coli Top10 cells were used for the recombination experiments. GBS was cultured in Todd Hewitt broth (THB) or Tryptic Soy 5% sheep blood (TS) media and E. coli in Luria-broth (LB) medium or agar. Antibiotics were used at the following concentrations: for GBS—penicillin G (MIC90 0.06 μg ml^−1), ampicillin (MIC90 0.12 μg ml^−1), vancomycin (MIC90 2 μg ml^−1), cefazolin (MIC90 1 μg ml^−1) and chloramphenicol (5 μg ml^−1); for E. coli—ampicillin (50 μg ml^−1) and chloramphenicol (5 μg ml^−1). Both GBS and E. coli cultures were grown at 37° C. (II) Tolerance Using the MBC:MIC Ratio Method. Three GBS laboratory strains (i.e., A909, NEM316, and O90R) were cultured overnight for 18 h at 37° C. in THB. Subcultures in THB were subsequently grown to exponential phase (OD600˜0.3; i.e. 5×10^5 cfu/ml) at 37° C. Cell cultures were then exposed to different concentrations of antibiotics (Penicillin G, Ampicillin, Cefozolin or Vancomycin). […] Cell cultures were dispersed every 18 h before OD600 was measured to determine the lowest concentration of antibiotic with 90% growth inhibition (MIC90). Antibiotic treated cells (8 μl) from each well were re-suspended into PBS (100 μl) and plated (54 μl) on TS agar plates and allowed to grow for an additional 24 h at 37° C. Cell count was performed to determine the lowest concentration of antibiotic with 90% killing of original inoculums (MBC90). (III) Penicillin Killing and Regrowth Tolerance Assay by Microbroth Dilution. Three GBS laboratory strains (i.e., A909, NEM316, and O90R) were cultured overnight for 18 h at 37° C. in THB. Subcultures in THB were subsequently grown to exponential phase (OD600˜0.3) at 37° C. Cell cultures were then exposed to different concentrations of Penicillin G (Sigma, St. Louis, Mo.). […] Cell cultures were dispersed. A 1:20 dilution of cells was re-plated into new wells containing fresh THB with 500 U Penase (to degrade residual penicillin). Cell cultures were allowed to re-grow for an additional 24 h at 37° C. before the OD600 was measured. (IV) Measuring Cell Viability by Determining ATP Concentration. GBS strains were cultured for 18 h at 37° C. in THB. These cells were inoculated into fresh THB and subsequently allowed to grow to exponential phase (OD600 0.25-0.3) at 37° C. One ml of each culture was centrifuged at 5,000×g for 4 min. The cell pellet was re-suspended in ATP-free water. […]

[1] = Streptococcus, GBS strain 2603V/R
[2] = Streptococcus, GBS strain NEM316

SMILES: CC1(C)S[C@@H]2[C@H](NC(=O)Cc3ccccc3)C(=O)N2[C@H]1C(=O)O [Penicillin G]
- Ratio (MBC90:MIC90) (GBS strain 2603V/R): 1
- Phenotype (GBS strain 2603V/R): S (MBC:MIC ratio of ≦2:1)
- Phenotype (GBS strain 2603V/R, listed as Penicillin): Susceptible
- Ratio (MBC90:MIC90) (GBS strain A909): 1
- Phenotype (GBS strain A909): S (MBC:MIC ratio of ≦2:1)
- Phenotype (GBS strain A909, listed as Penicillin): Susceptible
- Ratio (MBC90:MIC90) (GBS strain NEM316): 8
- Phenotype (GBS strain NEM316): I (4:1-16:1)
- Phenotype (GBS strain NEM316, listed as Penicillin): Intermediate
- Ratio (MBC90:MIC90) (GBS strain O90R): 32
- Phenotype (GBS strain O90R): PT (≧32:1)
- Phenotype (GBS strain O90R, listed as Penicillin): Tolerant
- MBC [1]: 0.06 µg/mL
- MBC (Streptococcus, GBS strain A909): 0.06 µg/mL
- MBC [2]: 0.48 µg/mL
- MBC (Streptococcus, GBS strain O90R): 3.84 µg/mL
- MIC [1]: 0.06 µg/mL
- MIC (Streptococcus, GBS strain A909): 0.06 µg/mL
- MIC [2]: 0.06 µg/mL
- MIC (Streptococcus, GBS strain O90R): 0.12 µg/mL
- MIC90 (Streptococcus, for GBS, as stated under culture conditions): 0.06 µg/mL
